{"source": "patent US4789630A", "about": "“Ionic compounds containing the cationic meriquinone of a benzidine” (Cetus Corporation, priority 1986, dated 1988)", "key": {"[1]": {"experiment": "Solubility of TMB in a series of buffers", "format": "physicochemical", "conditions": "for solubility: read-out: Solubility at 30.9 C", "procedure": "These are stoichiometric concentrations, uncorrected for ionization at pH 5.0. […] Each wash involved a total volume of 1.5 ml (pellet volume of about 0.3 ml) in an Eppendorf polypropylene centrifuge tube. […] At 30-60 min intervals, the crystal suspensions were spun 3-5 min at room temperature in a Fisher micro-centrifuge. […] After scanning, the solutions and pellets were returned to the equilibration tubes for renewed shaking. Repeat measurements were taken until precision within 20% was obtained. […] Care was taken to assure that solid meriquinone salt and solid TMB were present in each tube. Excess (saturating) TMB was added to suppress the dissociation of meriquinone charge-transfer complex into component quinone diimine and TMB (see FIG. 1). […] If the concentration was too high to measure undiluted with a 1 cm light path, the scan was performed on an undiluted sample with a 2 mm light path or an appropriately diluted sample (later discarded) with a 1 cm light path."}, "[2]": {"target": "T1, horseradish peroxidase (HRP) (Armoracia rusticana, UniProt P00433)", "T1 sequence (P00433 31-353)": "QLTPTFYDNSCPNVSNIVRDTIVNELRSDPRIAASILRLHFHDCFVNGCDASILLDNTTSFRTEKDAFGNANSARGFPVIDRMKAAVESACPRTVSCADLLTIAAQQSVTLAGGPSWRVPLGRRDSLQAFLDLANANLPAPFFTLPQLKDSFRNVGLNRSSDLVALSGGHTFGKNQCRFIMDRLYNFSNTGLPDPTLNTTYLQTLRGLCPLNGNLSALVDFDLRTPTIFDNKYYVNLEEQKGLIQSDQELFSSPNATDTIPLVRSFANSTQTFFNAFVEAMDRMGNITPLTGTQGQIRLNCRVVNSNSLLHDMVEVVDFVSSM", "experiment": "Kinetics of TMB oxidation by H2O2 and HRP in pH 3.9 fumarate-EDTA buffer", "format": "biochemical", "conditions": "0.31 mM TMB, 3.0 mM H2O2, 10 mM Na fumarate, 1 mM EDTA, pH 3.92, 25 C", "method": "(§1) Stock HRP solutions were prepared in 0.10M NaCl, 1.0 mM Na phosphate, pH 6.0 to be 22 ng/ml or 0.43 ng/ml in HRP, shortly before assay, HRP-catalyzed oxidation of TMB by H2 O2 was initiated by adding 20 or 2.0 μl of […] or 20 or 10 μl of 0.43 ng/ml HRP to 1.00 ml of the assay solution at 25° C. […] At the two lower HRP concentrations (0.22 and 0.11 pM in the cuvette), the reaction was followed for 30 minutes. At the end of each reaction interval, replicate 100 μl volumes of reaction mixture were spotted on a Nuclepore polycarbonate filter (3 μm pore size) and dried by gentle suction to give deposits 3-4 mm in diameter.\nThe initial velocity was transformed from units of absorbance per time to reciprocal time (turnover number) by dividing by the meriquinone extinction coefficient, 3.9×10^4 M^-1 cm^-1, and by the HRP concentration. […] The transition time is the time to crystal nucleation. […] The A652 of the 30 minute reaction mixture for 0.11 pM HRP was below 0.03, the approximate visual threshold, so that filtration trapping served to concentrate the signal to improve visibility. […] In addition, a white membrane would offer sharper visual contrast than the slightly yellow, translucent, polycarbonate. The transition time has a very shallow HRP concentration dependence, so that even lower HRP concentrations are unlikely to require assay times longer than 30 minutes in order to permit crystallization to occur. The transition time probably could be lowered by adding anionic latex microspheres which might serve to nucleate crystallization."}, "[3]": {"experiment": "pH dependence of TMB solubility (saturating TMB)", "format": "physicochemical", "conditions": "room temperature, pH 4.0; read-out: saturating TMB concentration", "method": "(§2) Regarding step (e), three independent variables (apart from temperature) most strongly influence horseradish […] activity with TMB as chromogenic substrate: TMB concentration, H2 O2 concentration, and pH. […] For relatively short assays (0-10 min.), however, suicide is not severe, and initial velocity is the most important indicator of enzyme activity. Initial velocity rises monotonically with TMB concentration, and is almost proportional to TMB concentration at a H2 O2 concentration of greater than 2 mM. The pH dependence of initial velocity at constant TMB concentration indicates an optimum pH at 4. The pH dependence of TMB solubility indicates a monotonic and increasingly steep rise as the pH is lowered from 5. […] Therefore, a pH of 3.5-4.5 is the preferred pH range for step (e), more preferably pH 4.0, if the substituted benzidine is TMB and the oxidation catalyst is horseradish peroxidase. The optimum horseradish peroxidase assay conditions are at room temperature, pH 4.0, 0.4 mM (saturating) TMB, and 2-3 mM H2 O2."}, "[4]": {"experiment": "Crystal nucleation and filter trapping of the fumarate salt of the meriquinone of TMB", "format": "physicochemical", "conditions": "10 mM Na fumarate, pH 3.92, 25 C", "method": "as §1, with “the” for “the two lower HRP concentrations (0.22 and 0.11 pM in the cuvette), the reaction was followed for 30 minutes. At the”\nThe initial velocity was transformed from units of absorbance per time to reciprocal time (turnover number) by dividing by the meriquinone extinction coefficient, 3.9×10^4 M^-1 cm^-1, and by the HRP concentration. […] The transition time is the time to crystal nucleation."}, "horseradish peroxidase": {"target": "T2, horseradish peroxidase (Armoracia rusticana, UniProt P00433)", "T2 sequence (P00433 31-353)": "T1 sequence (P00433 31-353)", "experiment": "Horseradish peroxidase activity with TMB as chromogenic substrate, pH dependence", "format": "biochemical", "conditions": "from pH 5.0 to pH 4.0", "method": "as §2"}, "[5]": {"experiment": "Solubilities of salts of the meriquinone of TMB (equilibration of solid salt with buffer, A650)", "procedure": "These are stoichiometric concentrations, uncorrected for ionization at pH 5.0. […] Each wash involved a total volume of 1.5 ml (pellet volume of about 0.3 ml) in an Eppendorf polypropylene centrifuge tube. […] At 30-60 min intervals, the crystal suspensions were spun 3-5 min at room temperature in a Fisher micro-centrifuge. […] After scanning, the solutions and pellets were returned to the equilibration tubes for renewed shaking. Repeat measurements were taken until precision within 20% was obtained. […] Care was taken to assure that solid meriquinone salt and solid TMB were present in each tube. Excess (saturating) TMB was added to suppress the dissociation of meriquinone charge-transfer complex into component quinone diimine and TMB (see FIG. 1). […] These spectra contained absorbance peaks at 370 and 650 nm characteristic of meriquinone and a very small shoulder at 450 nm assigned to quinone diimine; a much larger peak near 280 nm confirmed the presence of excess TMB. […] If the concentration was too high to measure undiluted with a 1 cm light path, the scan was performed on an undiluted sample with a 2 mm light path or an appropriately diluted sample (later discarded) with a 1 cm light path.\nSolubilities at 0 C. were determined for all solutions in which they were high enough for accurate measurement.\nThe dashed lines were visually fitted. […]"}}}
{"molecule": "Cc1cc(-c2cc(C)c(N)c(C)c2)cc(C)c1N", "note": "[TMB, 3,3',5,5'-tetramethylbenzidine]", "values": [{"measurement": "Solubility Ratio: 30.9 C/0.0 C", "setting": "[1]; acetate buffer, pH 5.0, 0.10M", "value": 2.4}, {"measurement": "solubility", "setting": "[1]; aqueous buffer, acetate buffer, pH 5.0, 0.10M", "value": 170, "unit": "µM"}, {"measurement": "solubility", "setting": "[1]; aqueous buffer, citrate buffer, pH 5.0, 0.10M", "value": 170, "unit": "µM"}, {"measurement": "solubility", "setting": "[1]; aqueous buffer, glutarate buffer, pH 5.0, 0.10M", "value": 170, "unit": "µM"}, {"measurement": "solubility", "setting": "[1]; aqueous buffer, maleate buffer, pH 5.0, 0.10M", "value": 210, "unit": "µM"}, {"measurement": "solubility", "setting": "[1]; aqueous buffer, malonate buffer, pH 5.0, 0.10M", "value": 160, "unit": "µM"}, {"measurement": "solubility", "setting": "[1]; aqueous buffer, phosphate buffer, pH 5.0, 0.10M", "value": 160, "unit": "µM"}, {"measurement": "Solubility Ratio: 30.9 C/0.0 C", "setting": "[1]; citrate buffer, pH 5.0, 0.10M", "value": 2.3}, {"measurement": "Solubility Ratio: 30.9 C/0.0 C", "setting": "[1]; fumarate buffer, pH 5.0, 0.10M", "value": 3.9}, {"measurement": "solubility", "setting": "[1]; fumarate buffer, pH 5, aqueous buffer", "value": 160, "unit": "µM"}, {"measurement": "Solubility Ratio: 30.9 C/0.0 C", "setting": "[1]; glutarate buffer, pH 5.0, 0.10M", "value": 2.0}, {"measurement": "Solubility Ratio: 30.9 C/0.0 C", "setting": "[1]; maleate buffer, pH 5.0, 0.10M", "value": 7.6}, {"measurement": "Solubility Ratio: 30.9 C/0.0 C", "setting": "[1]; malonate buffer, pH 5.0, 0.10M", "value": 1.8}, {"measurement": "Solubility Ratio: 30.9 C/0.0 C", "setting": "[1]; oxalate buffer, pH 5.0, 0.10M", "value": 12}, {"measurement": "solubility", "setting": "[1]; oxalate buffer, pH 5, aqueous buffer", "value": 160, "unit": "µM"}, {"measurement": "Solubility Ratio: 30.9 C/0.0 C", "setting": "[1]; phosphate buffer, pH 5.0, 0.10M", "value": 2.0}, {"measurement": "Solubility Ratio: 30.9 C/0.0 C", "setting": "[1]; sulfate buffer, pH 5.0, 0.10M", "value": 1.9}, {"measurement": "solubility", "setting": "[1]; sulfate buffer, pH 5, aqueous buffer", "value": 150, "unit": "µM"}, {"measurement": "Vinitial", "setting": "[2]; [HRP] 0.11 x 10^-12 M", "value": "4.4 × 10^-5 WA652 S^-1"}, {"measurement": "Vinitial", "setting": "[2]; [HRP] 0.21 x 10^-12 M", "value": "8.0 × 10^-5 WA652 S^-1"}, {"measurement": "Vinitial", "setting": "[2]; [HRP] 1.1 x 10^-12 M", "value": "4.1 × 10^-4 WA652 S^-1"}, {"measurement": "Vinitial", "setting": "[2]; [HRP] 11 x 10^-12 M", "value": "4.2 × 10^-3 WA652 S^-1"}, {"measurement": "solubility", "setting": "[3]", "value": 400, "unit": "µM"}, {"measurement": "A652 at Transition", "setting": "[4]; [HRP] 0.11 x 10^-12 M", "value": 0.025}, {"measurement": "Transition Time (time to crystal nucleation)", "setting": "[4]; [HRP] 0.11 x 10^-12 M", "value": 10, "unit": "min"}, {"measurement": "A652 at Transition", "setting": "[4]; [HRP] 0.21 x 10^-12 M", "value": 0.04}, {"measurement": "Transition Time (time to crystal nucleation)", "setting": "[4]; [HRP] 0.21 x 10^-12 M", "value": 10, "unit": "min"}, {"measurement": "A652 at Transition", "setting": "[4]; [HRP] 1.1 x 10^-12 M", "value": 0.08}, {"measurement": "Transition Time (time to crystal nucleation)", "setting": "[4]; [HRP] 1.1 x 10^-12 M", "value": "3 to 4", "unit": "min"}, {"measurement": "A652 at Transition", "setting": "[4]; [HRP] 11 x 10^-12 M", "value": "0.25-0.50"}, {"measurement": "Transition Time (time to crystal nucleation)", "setting": "[4]; [HRP] 11 x 10^-12 M", "value": "1 to 2", "unit": "min"}, {"measurement": "increase of initial velocity at saturating TMB", "setting": "horseradish peroxidase", "value": "four-fold increase"}]}
{"molecule": "Maleate", "values": [{"measurement": "Solubility Ratio: 25.2 C/0.0 C", "setting": "[5]; averaged for the different stated concentrations of each salt, buffers pH 5.0 at room temperature", "value": 8.1}, {"measurement": "Molar Solubility in 0.1 M Anion", "setting": "[5]; extrapolated, pH 5.0, 10% ethanol, 0.10M sodium acetate, 25.2 C", "value": "4 × 10^-8 Molar"}]}
